From patent US20240287097A1, “COMPOUNDS AND METHODS FOR MODULATING SPLICING” (REMIX THERAPEUTICS INC., priority 2020, published 2024)

Columns and labels:
Assay type in all cases: cell-based
[1] = tested on: HTT mRNA, alternative junction (AJ); test: Splicing RT-qPCR assay, HTT alternative junction (AJ) mRNA increase; details: A673 or K562 cells, 24 hours compound treatment, 50% response in AJ increase
Procedure: (§1) Compounds described herein were used to modulate RNA transcript abundance in cells. The expression of a target mRNA was measured by detecting the formation of an exon-exon junction in the canonical transcript (CJ). A compound mediated exon-inclusion event was detected by observing an increase in formation of a new junction with an alternative exon (AJ). Real-time qPCR assays were used to detect these splicing switches and interrogate the potency of various compounds towards different target genes. A high-throughput real time quantitative PCR (RT-qPCR) assay was developed to measure these two isoforms of the mRNA (CJ and AJ) for an exemplary gene, HTT, together with a control housekeeping gene, GAPDH or GUSB or PPIA, used for normalization. Briefly, the A673 or K562 cell line was treated with various compounds described herein (e.g., compounds of Formula (I)). After treatment, the levels of the HTT mRNA targets were determined from each sample of cell lysate by cDNA synthesis followed by qPCR.
(§2) • Cells-to-CT 1-step kit: ThermoFisher A25602, Cells-to-CT lysis reagent: ThermoFisher 4391851C, TagMan™ Fast Virus 1-Step Master Mix: ThermoFisher 4444436 • GAPDH: VIC-PL, ThermoFisher 4326317E (Assay: Hs99999905 m1)—used for K562/suspension cell lines • GUSB: VIC-PL, ThermoFisher 4326320E (Assay: Hs99999908 m1)—used for K562/suspension cell lines • PPIA: VIC-PL, ThermoFisher 4326316E (Assay: Hs99999904 m1)—used for A673/adherent cell lines
(§3) The A673 cell line was cultured in DMEM with 10% FBS. Cells were diluted with full growth media and plated in a 96-well plate (15,000 cells in 100 ul media per well). The plate was incubated at 37° C. with 5% CO2 for 24 hours to allow cells to adhere. An 11-point 3-fold serial dilution of the compounds was made in DMSO then diluted in media in an intermediate plate. Compounds were transferred from the intermediate plate to the cell plate with the top dose at a final concentration of 10 uM in the well. Final DMSO concentration was kept at or below 0.25%. The cell plate was returned to the incubator at 37° C. with 5% CO2 for an additional 24 hours.
(§4) The K562 cell line was cultured in IMDM with 10% FBS. For K562, cells were diluted with full growth media and plated in either a 96-well plate (50,000 cells in 50 uL media per well) or a 384-well plate (8,000-40,000 cells in 45 uL media per well). An 11-point 3-fold serial dilution of the compounds were made in DMSO then diluted in media in an intermediate plate. Compound was transferred from the intermediate plate to the cell plate with the top dose at a final concentration of 10 uM in the well. Final DMSO concentration was kept at or below 0.25%. Final volume was 100 uL for 96-well plate and 50 uL for 384-well plate. The cell plate was then placed in an incubator at 37° C. with 5% CO2 for 24 hours.
(§5) The cells were then gently washed with 50 uL-100 uL cold PBS before proceeding to addition of lysis buffer. 30 uL-50 uL of room temperature lysis buffer with DNAse I (and optionally RNAsin) was added to each well. Cells were shaken/mixed thoroughly at room temperature for 5-10 minutes for lysis to take place and then 3 uL-5 uL of room temperature stop solution was added and wells were shaken/mixed again. After 2-5 minutes, the cell lysate plate was transferred to ice for RT-qPCR reaction setup. The lysates could also be frozen at ˜80° C. for later use.
(§6) In some cases, a direct lysis buffer was used. An appropriate volume of 3×lysis buffer (10 mM Tris, 150 mM NaCl, 1.5%-2.5% Igepal and 0.1-1 U/uL RNAsin, pH 7.4) was directly added to either K562 or A673 cells in media and mixed by pipetting 3 times. The plates were then incubated at room temperature with shaking/rocking for 20-50 minutes to allow for lysis to take place. After this time, the cell lysate plate was transferred to ice to set up for the RT-qPCR reactions. The lysates could also be frozen at −80° C. for later use. […]

[2] = tested on: HTT mRNA, canonical junction (CJ); test: Splicing RT-qPCR assay, HTT canonical junction (CJ) mRNA decrease; details: A673 or K562 cells, 24 hours compound treatment, 50% response in CJ decrease
Procedure: as §1, §2, §3, §4, §5, §6

[3] = tested on: HTT CJ mRNA transcript; test: Gene panel canonical junction qPCR assay, HTT; details: 50% response in CJ decrease, read-out: HTT IC50 (decrease in CJ mRNA levels)
Procedure: as §1, §3, §4
(§7) The data analysis was performed by first determining the ΔCt vs the housekeeper gene. This ΔCt was then normalized against the DMSO control (ΔΔCt) and converted to RQ (relative quantification) using the 2^(−ΔΔCt) equation. The RQ were then converted to a percentage response by arbitrarily setting an assay window of 3.5 ΔCt for HTT-CJ and an assay window of 9 ΔCt for HTT-AJ. […] The percentage response was then fitted to the 4 parametric logistic equation to evaluate the concentration dependence of compound treatment. The increase in AJ mRNA is reported as AC50 (compound concentration having 50% response in AJ increase) while the decrease in CJ mRNA levels is reported as IC50 (compound concentration having 50% response in CJ decrease).
(§8) Additional studies were carried out for a larger panel of genes using the protocol provided above. The junction between flanking upstream and downstream exons was used to design canonical junction qPCR assays. At least one of the forward primer, reverse primer or the CY5-labeled 5′ nuclease probe (with 3′ quencher such as ZEN/Iowa Black FQ) was designed to overlap with the exon junction to capture the CJ mRNA transcript. BLAST was used to confirm the specificity of the probeset and parameters such as melting temperature, GC content, amplicon size, and primer dimer formation are considered during their design. Data for the decrease in CJ mRNA levels for three exemplary genes (HTT, SMN2, and Target C) analyzed in this panel are reported as IC50 (compound concentration having 50% response in CJ decrease).

[4] = tested on: SMN2 CJ mRNA transcript; test: Gene panel canonical junction qPCR assay, SMN2; details: 50% response in CJ decrease, read-out: SMN2 IC50 (decrease in CJ mRNA levels)
Procedure: as §1, §3, §4, §7, §8

[5] = tested on: Target C CJ mRNA transcript; test: Gene panel canonical junction qPCR assay, Target C; details: 50% response in CJ decrease, read-out: Target C IC50 (decrease in CJ mRNA levels)
Procedure: as §1, §3, §4, §7, §8

Row | SMILES | IC50 [3] | IC50 [4] | IC50 [5] | AC50 [1] | AC50 [2]
1 | Cc1cc(-c2nc3c(=O)n(C4CCN(C)CC4)cnc3s2)cc2cn(C)nc12 [Compound 179, 2-(2,7-dimethyl-2H-indazol-5-yl)-6-(1-methylpiperidin-4-yl)thiazolo[5,4-d]pyrimidin-7(6H)-one] | > 10 µM | 0.1 to 1 µM | – | > 10 µM | > 10 µM
2 | Cc1cn2cc(-c3nc4c(=O)n(C5CCN(C)CC5)cnc4s3)cc(F)c2n1 [Compound 186, 2-(8-fluoro-2-methylimidazo[1,2-a]pyridin-6-yl)-6-(1-methylpiperidin-4-yl)thiazolo[5,4-d]pyrimidin-7(6H)-one] | 1 to 10 µM | 1 to 10 µM | – | 1 to 10 µM | 1 to 10 µM
3 | Cc1cc(-c2nc3c(=O)n(C4CC(C)(C)N(C=O)C(C)(C)C4)cnc3s2)cc2cn(C)nc12 [Compound 187, 4-(2-(2,7-dimethyl-2H-indazol-5-yl)-7-oxothiazolo[5,4-d]pyrimidin-6(7H)-yl)-2,2,6,6-tetramethylpiperidine-1-carbaldehyde] | 1 to 10 µM | > 10 µM | – | > 10 µM | 1 to 10 µM
4 | CN1CC=C(c2nc3c(=O)n(-c4ccc5nn(C)cc5c4)cnc3s2)CC1 [Compound 188, 2-(1-methyl-1,2,3,6-tetrahydropyridin-4-yl)-6-(2-methyl-2H-indazol-5-yl)thiazolo[5,4-d]pyrimidin-7(6H)-one] | > 10 µM | > 10 µM | 1 to 10 µM | > 10 µM | > 10 µM
5 | CN1CCC(N(C)c2nc3c(=O)n(-c4ccc5nn(C)cc5c4)cnc3s2)CC1 [Compound 190, 2-(methyl(1-methylpiperidin-4-yl)amino)-6-(2-methyl-2H-indazol-5-yl)thiazolo[5,4-d]pyrimidin-7(6H)-one] | > 10 µM | > 10 µM | > 10 µM | > 10 µM | > 10 µM
6 | Cc1cn2cc(-n3cnc4sc(N5CCN(C)CC5)nc4c3=O)cc(F)c2n1 [Compound 221, 6-(8-fluoro-2-methylimidazo[1,2-a]pyridin-6-yl)-2-(4-methylpiperazin-1-yl)thiazolo[5,4-d]pyrimidin-7(6H)-one] | > 10 µM | > 10 µM | > 10 µM | > 10 µM | > 10 µM
7 | Cc1cn2cc(-n3cnc4sc(N5CCNCC5)nc4c3=O)cc(C(F)(F)F)c2n1 [Compound 223, 6-(2-methyl-8-(trifluoromethyl)imidazo[1,2-a]pyridin-6-yl)-2-(piperazin-1-yl)thiazolo[5,4-d]pyrimidin-7(6H)-one] | > 10 µM | > 10 µM | > 10 µM | > 10 µM | > 10 µM
8 | Cc1cn2cc(-n3cnc4sc(N5CCN(C)CC5)nc4c3=O)cc(C(F)(F)F)c2n1 [Compound 224, 6-(2-methyl-8-(trifluoromethyl)imidazo[1,2-a]pyridin-6-yl)-2-(4-methylpiperazin-1-yl)thiazolo[5,4-d]pyrimidin-7(6H)-one] | – | – | – | > 10 µM | > 10 µM

Second part, led by results:

Row | IC50 [3] | IC50 [4] | IC50 [5] | SMILES | AC50 [1] | AC50 [2]
9 | > 10 µM | > 10 µM | > 10 µM | CN1CCC(c2nc3c(=O)n(-c4ccc5nn(C)cc5c4)cnc3s2)CC1 [Compound 176, 6-(2-methyl-2H-indazol-5-yl)-2-(1-methylpiperidin-4-yl)thiazolo[5,4-d]pyrimidin-7(6H)-one] | > 10 µM | > 10 µM
10 | > 10 µM | > 10 µM | – | CN1CCN(c2nc3c(=O)n(-c4ccc5nn(C)cc5c4)cnc3s2)CC1 [Compound 181, 6-(2-methyl-2H-indazol-5-yl)-2-(4-methylpiperazin-1-yl)thiazolo[5,4-d]pyrimidin-7(6H)-one] | > 10 µM | > 10 µM
11 | > 10 µM | > 10 µM | – | Cn1cc2cc(-n3cnc4sc(N5CCN(Cc6ccc(F)cc6)CC5)nc4c3=O)ccc2n1 [Compound 185, 2-(4-(4-fluorobenzyl)piperazin-1-yl)-6-(2-methyl-2H-indazol-5-yl)thiazolo[5,4-d]pyrimidin-7(6H)-one] | > 10 µM | > 10 µM
12 | > 10 µM | > 10 µM | > 10 µM | CN1CCC(Nc2nc3c(=O)n(-c4ccc5nn(C)cc5c4)cnc3s2)CC1 [Compound 189, 6-(2-methyl-2H-indazol-5-yl)-2-((1-methylpiperidin-4-yl)amino)thiazolo[5,4-d]pyrimidin-7(6H)-one] | > 10 µM | > 10 µM
13 | > 10 µM | > 10 µM | > 10 µM | Cn1cc2cc(-n3cnc4sc(N5CCNCC5)nc4c3=O)ccc2n1 [Compound 219, 6-(2-methyl-2H-indazol-5-yl)-2-(piperazin-1-yl)thiazolo[5,4-d]pyrimidin-7(6H)-one] | > 10 µM | > 10 µM
14 | > 10 µM | > 10 µM | 1 to 10 µM | Cc1cn2cc(-n3cnc4sc(N5CCNCC5)nc4c3=O)cc(F)c2n1 [Compound 220, 6-(8-fluoro-2-methylimidazo[1,2-a]pyridin-6-yl)-2-(piperazin-1-yl)thiazolo[5,4-d]pyrimidin-7(6H)-one] | > 10 µM | > 10 µM
